pIC50: −log10 of the molar value.
How the values were obtained:
prolyl endopeptidase = molecular target: T1, prolyl endopeptidase (Rattus norvegicus, UniProt O70196); test: Prolyl endopeptidase-inhibitory activity; type: biochemical; settings: for inhibition at 1 µM / inhibition at 0.1 µM: read-out: inhibition rate, prolyl endopeptidase; for pIC50: prolyl endopeptidase extracted from rat brain, pH 7.0, 30° C., read-out: IC50
T1 construct: prolyl endopeptidase extracted from rat brain; from tissue; host or cells: rat brain
Experimental: Prolyl endopeptidase-inhibitory activity
A mixture of a 0.1M potassium sodium phosphate buffer (pH 7.0) (2675 μl), a solution of the compounds of the present invention in a 0.1M potassium sodium phosphate buffer (pH 7.0) (100 μl) and a solution of prolyl endopeptidase extracted from rat brain in a 25 mM sodium phosphate buffer (100 μl) [123 unit/1, pH 6.8, containing 1 mM dithiothreitol and 0.5 mM EDTA, prepared by the method described in J. Neurochem., 35, 527 (1980)]was preincubated at 30° C. for 30 minutes. Thereto was added a 0.2 mM solution of 7-(N-succinyl-glycyl-prolyl)-4-methylcoumarinamide (Peptide Institute, INC.) in a 0.1M potassium sodium phosphate buffer (pH 7.0) (125 μl), and the mixture was incubated at 30° C. for 1 hour. The reaction mixture was immersed in ice (0° C.) to terminate the reaction, and the fluorescence (a1) was determined ten minutes later (excitation at 370 nm and emission at 440 nm). Concurrently, there were conducted the experiment wherein, in the above system, the prolyl endopeptidase solution was substituted for a 25 mM sodium phosphate buffer (pH 6.8, containing 1 mM dithiothreitol and 0.5 mM EDTA) and the experiment wherein the solution of the compounds of the present invention was substituted for a 0.1M potassium sodium phosphate buffer (pH 7.0). Each fluorescence (a2 and a3) was determined respectively [See Tanpakushitsu Kakusan Koso, 29, 127 (1984)]. The prolyl endopeptidase-inhibition rate was calculated by the following formula, and IC50, a concentration of a compound producing 50% inhibition, was estimated by semilogarithmic graph paper. [formula] […]

trypsin = molecular target: T2, trypsin (Bos taurus, UniProt P00760); test: Determination of trypsin-inhibitory activity; type: biochemical, bovine; settings: read-out: inhibition rate, trypsin
T2 construct: purchased Sigma; host or cells: bovine pancreas
T2 sequence (P00760 24-246): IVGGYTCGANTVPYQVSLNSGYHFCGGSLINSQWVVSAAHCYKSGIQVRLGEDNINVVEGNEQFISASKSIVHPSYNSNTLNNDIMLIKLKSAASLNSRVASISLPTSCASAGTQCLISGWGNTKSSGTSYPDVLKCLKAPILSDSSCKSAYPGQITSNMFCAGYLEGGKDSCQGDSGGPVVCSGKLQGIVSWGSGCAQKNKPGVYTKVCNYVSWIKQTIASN
Experimental: (§1) The methods for the measurement of inhibitory activities against various proteases and the method for calculating the inhibition rate are as follows.
Determination of trypsin-inhibitory activity
In the present invention, a 50 mM Tris-HCl buffer (pH 8.0) was employed as a buffer for measurement.
To a mixture of the above-mentioned buffer (850 μl), a solution of the compounds of the present invention in the same buffer (50 μl) and a 0.02 μM solution of trypsin (derived from bovine pancreas, Sigma) in the same buffer (50 μl) was added a 200 μM solution of 7-(prolyl-phenylaranyl-arginyl)-4-methylcoumarinamide (Peptide Institute, Inc.) in the same buffer (50 μl),and the mixture was incubated at 30° C. for 1 hour. The reaction mixture was immersed in ice (0° C.) to terminate the reaction, and the fluorescence (b1) was determined 1 hour later (excitation at 370 nm and emission at 440 nm). Concurrently, there were conducted the experiment wherein, in the system above, the trypsin solution was substituted for a buffer alone, and the experiment wherein the solution of the compounds of the present invention was substituted for a buffer above. Each fluorescence (b2 and b3) was determined respectively.
(§2) Using the fluorescence x1, x2 and x3 measured in the abovementioned manner, the inhibitory rate against various proteases was calculated by the following formula where x stands for b, c, d, e or f: [formula]

chymotrypsin = molecular target: T3, chymotrypsin (Bos taurus, UniProt P00766); test: Determination of chymotrypsin-inhibitory activity; type: biochemical, bovine; settings: read-out: inhibition rate, chymotrypsin
T3 construct: purchased Sigma; host or cells: bovine pancreas
Experimental: as §1
Determination of chymotrypsin-inhibitory activity
Similarly, by following the procedure mentioned above, but employing a 50 mM Tris-HCl buffer (pH 8.0) as a buffer for measurement, a 0.2 μM solution of chymotrypsin (derived from bovine pancreas, Sigma) in the same buffer as an enzyme solution and a […] solution of 7-(N-succinyl-leucyl-leucyl-valyl-tyrosyl)-4-methylcoumarinamide (Peptide Institute, Inc.) in the same buffer as a substrate solution, each fluorescence (c1, c2 and c3) was determined, respectively.
as §2

leucine aminopeptidase = test: Determination of leucine aminopeptidase-inhibitory activity; type: biochemical, swine; parameters: unit not given here
Experimental: as §1
Determination of leucine aminopeptidase-inhibitory activity
Similarly, by following the procedure mentioned above, but employing a 50 mM Tris-HCl buffer (pH 8.0) as a buffer for measurement, a […] solution of leucine aminopeptidase (derived from swine kidney, Sigma) in the same buffer as an enzyme solution and a 200 μM solution of 7-leucyl-4-methyl-coumarinamide (Peptide Institute, Inc.) in the same buffer as a substrate solution, each fluorescence (d1, d2 and d3) was determined, respectively.
as §2

elastase = molecular target: T4, elastase (Sus scrofa, UniProt P00772); test: Determination of elastase-inhibitory activity; type: biochemical, swine; settings: read-out: inhibition rate, elastase
T4 construct: purchased Sigma; host or cells: swine pancreas
Experimental: as §1
Determination of elastase-inhibitory activity
Similarly, by following the procedure mentioned above, but employing a 1 mM Tris-HCl buffer (pH 8.5) as a buffer for measurement, a 0.2 μM solution of elastase (derived from swine pancreas, Sigma) in the same buffer as an enzyme solution and a 200 μM solution of 7-(N-succinyl-aranyl-prolyl-aranyl)-4-methylcoumarinamide (Peptide Institute, Inc.) in the same buffer as a substrate solution, each fluorescence (e1, e2 and e3) was determined, respectively.
as §2

cathepsin B = molecular target: T5, cathepsin B (Bos taurus, UniProt P07688); test: Determination of cathepsin B-inhibitory activity; type: biochemical, bovine; settings: read-out: inhibition rate, cathepsin B
T5 construct: purchased Sigma; host or cells: bovine spleen
Experimental: as §1
Determination of cathepsin B-inhibitory activity
Similarly, by following the procedure mentioned above, but employing a 100 mM sodium phosphate buffer (pH 6.0; containing 1.33 mM EDTA Na2) as a buffer for measurement, a 0.02 μM solution of cathepsin B (derived from bovine spleen, Sigma) in the same buffer as an enzyme solution and a 200 μM solution of 7-(N-benzyloxycarbonyl-phenylaranyl-arginyl)-4-methylcoumarinamide (Peptide Institute, Inc.) in the same buffer as a substrate solution, each fluorescence (f1, f2 and f3) was determined, respectively.
as §2

T1 sequence (O70196 whole entry): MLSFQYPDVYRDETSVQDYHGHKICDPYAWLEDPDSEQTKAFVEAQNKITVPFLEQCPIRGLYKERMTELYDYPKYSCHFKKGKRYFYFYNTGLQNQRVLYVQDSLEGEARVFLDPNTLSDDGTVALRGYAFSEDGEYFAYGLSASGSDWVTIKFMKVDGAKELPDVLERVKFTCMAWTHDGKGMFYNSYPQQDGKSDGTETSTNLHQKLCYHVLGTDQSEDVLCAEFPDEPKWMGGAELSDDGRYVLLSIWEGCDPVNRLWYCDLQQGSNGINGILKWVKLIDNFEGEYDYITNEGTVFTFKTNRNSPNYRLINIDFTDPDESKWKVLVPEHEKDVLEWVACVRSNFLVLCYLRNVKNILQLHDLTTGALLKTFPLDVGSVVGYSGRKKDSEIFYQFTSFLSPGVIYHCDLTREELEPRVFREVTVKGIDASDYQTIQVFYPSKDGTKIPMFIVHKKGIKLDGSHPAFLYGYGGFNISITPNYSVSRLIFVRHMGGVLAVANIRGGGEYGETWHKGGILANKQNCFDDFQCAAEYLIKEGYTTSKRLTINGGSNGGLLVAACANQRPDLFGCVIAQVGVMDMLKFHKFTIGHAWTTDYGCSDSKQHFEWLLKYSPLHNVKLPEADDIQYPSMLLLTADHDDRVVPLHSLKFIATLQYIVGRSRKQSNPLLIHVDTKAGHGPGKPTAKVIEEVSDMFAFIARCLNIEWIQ
T4 sequence (P00772 27-266): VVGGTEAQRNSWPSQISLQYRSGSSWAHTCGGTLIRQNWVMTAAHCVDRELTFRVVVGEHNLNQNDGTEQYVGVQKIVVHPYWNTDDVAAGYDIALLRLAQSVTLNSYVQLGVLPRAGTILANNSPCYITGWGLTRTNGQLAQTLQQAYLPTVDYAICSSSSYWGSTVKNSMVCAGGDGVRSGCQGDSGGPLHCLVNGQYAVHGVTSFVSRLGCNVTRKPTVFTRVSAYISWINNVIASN

**Q.** How did the inhibition at 1 µM (prolyl endopeptidase) turn out when `CCOC(=O)[C@@H](NC(=O)N1CCC[C@H]1C(=O)N1CCC[C@H]1C(=O)COc1ccccc1)c1ccccc1` [Compound 53, (2S)-1-[N-[[(S)-α-(Ethoxycarbonyl)benzylamino]carbonyl]-L-prolyl]-2-(phenoxyacetyl)pyrrolidine] was run?
**A.** 96%

**Q.** What about the pIC50 (prolyl endopeptidase) of the same compound?
**A.** 7.52

**Q.** And the inhibition at 1 µM (trypsin)?
**A.** 0%

**Q.** And the inhibition at 1 µM (chymotrypsin)?
**A.** 0%

**Q.** What about the “inhibition rate, leucine aminopeptidase” value (leucine aminopeptidase; 1 μM) of the same compound?
**A.** 0

**Q.** And the inhibition at 1 µM (elastase)?
**A.** 0%

**Q.** And the inhibition at 1 µM (cathepsin B)?
**A.** 0%

**Q.** What does the source list for `COc1ccc([S@+]([O-])CC(=O)[C@@H]2CCCN2C(=O)[C@@H]2CCCN2C(=O)OCc2ccccc2)cc1` [Compound 12, (2S)-1-(N-Benzyloxycarbonyl-L-prolyl)-2-{[(R)-4-methoxy-phenylsulfinyl]acetyl}pyrrolidine]?
**A.** inhibition at 1 µM (prolyl endopeptidase): 92%; pIC50 (prolyl endopeptidase): 7.70; inhibition at 1 µM (trypsin): 0%; inhibition at 1 µM (chymotrypsin): 0%; inhibition rate, leucine aminopeptidase (leucine aminopeptidase; 1 μM): 0; inhibition at 1 µM (elastase): 0%; inhibition at 1 µM (cathepsin B): 0%

**Q.** For `O=C(CS(=O)(=O)c1ccccc1)[C@@H]1CCCN1C(=O)[C@@H]1CCCN1C(=O)OCc1ccccc1` [Compound 3, (2S)-1-(N-Benzyloxycarbonyl-L-prolyl)-2-[(phenylsulfonyl)-acetyl]pyrrolidine], which inhibition at 0.1 µM (prolyl endopeptidase) is on record?
**A.** 91%

**Q.** What about the pIC50 (prolyl endopeptidase) of the same compound?
**A.** 7.92

**Q.** What about the inhibition at 0.1 µM (trypsin) of the same compound?
**A.** 0%

**Q.** What about the inhibition at 0.1 µM (chymotrypsin) of the same compound?
**A.** 0%

**Q.** And the “inhibition rate, leucine aminopeptidase” value (leucine aminopeptidase; 0.1 μM)?
**A.** 0

**Q.** And the inhibition at 0.1 µM (elastase)?
**A.** 0%

**Q.** And the inhibition at 0.1 µM (cathepsin B)?
**A.** 0%

**Q.** Which inhibition at 0.1 µM (prolyl endopeptidase) does the source give for `O=C(COCc1ccccc1)[C@@H]1CCCN1C(=O)[C@@H]1CCCN1C(=O)NCc1ccccc1` [Compound 32] here?
**A.** 96%

**Q.** What about the pIC50 (prolyl endopeptidase) of the same compound?
**A.** 9.00

**Q.** What about the inhibition at 0.1 µM (trypsin) of the same compound?
**A.** 0%

**Q.** And the inhibition at 0.1 µM (chymotrypsin)?
**A.** 0%

**Q.** And the “inhibition rate, leucine aminopeptidase” value (leucine aminopeptidase; 0.1 μM)?
**A.** 0

**Q.** What about the inhibition at 0.1 µM (elastase) of the same compound?
**A.** 0%

**Q.** And the inhibition at 0.1 µM (cathepsin B)?
**A.** 0%

**Q.** Which inhibition at 1 µM (prolyl endopeptidase) does the source give for `O=C(COc1ccc(Cl)cc1)[C@@H]1CCCN1C(=O)[C@@H]1CCCN1C(=O)CCc1ccccc1` [Compound 26, (2S)-2-(4-Chlorophenoxyacetyl)-1-[N-(3-phenylpropionyl)-L-prolyl]pyrrolidine] here?
**A.** 99%

**Q.** And the pIC50 (prolyl endopeptidase)?
**A.** 8.35

**Q.** And the inhibition at 1 µM (trypsin)?
**A.** 0%

**Q.** What about the inhibition at 1 µM (chymotrypsin) of the same compound?
**A.** 0%

**Q.** What about the “inhibition rate, leucine aminopeptidase” value (leucine aminopeptidase; 1 μM) of the same compound?
**A.** 0

**Q.** And the inhibition at 1 µM (elastase)?
**A.** 0%

**Q.** And the inhibition at 1 µM (cathepsin B)?
**A.** 0%

**Q.** Which results are given for `COc1ccc(OCC(=O)[C@@H]2CCCN2C(=O)[C@@H]2CCCN2C(=O)OCC23CC4CC(CC(C4)C2)C3)cc1` [Compound 50, (2S)-1-{N-[(1-Adamantyl)methoxycarbonyl]-L-prolyl}-2-(4-methoxyphenoxyacetyl)pyrrolidine]?
**A.** inhibition at 1 µM (prolyl endopeptidase): 97%; pIC50 (prolyl endopeptidase): 6.30; inhibition at 1 µM (trypsin): 0%; inhibition at 1 µM (chymotrypsin): 0%; inhibition rate, leucine aminopeptidase (leucine aminopeptidase; 1 μM): 0; inhibition at 1 µM (elastase): 0%; inhibition at 1 µM (cathepsin B): 0%

**Q.** `COc1ccc([S@@+]([O-])CC(=O)[C@@H]2CCCN2C(=O)[C@@H]2CCCN2C(=O)NCc2ccccc2)cc1` [Compound 23, (2S)-1-(N-Benzylaminocarbonyl-L-prolyl)-2-{[(S)-4-methoxyphenylsulfinyl]acetyl}pyrrolidine] was tested. Which inhibition at 1 µM (prolyl endopeptidase) did it give?
**A.** 99%

**Q.** And the pIC50 (prolyl endopeptidase)?
**A.** 7.82

**Q.** And the inhibition at 1 µM (trypsin)?
**A.** 0%

**Q.** What about the inhibition at 1 µM (chymotrypsin) of the same compound?
**A.** 0%

**Q.** And the “inhibition rate, leucine aminopeptidase” value (leucine aminopeptidase; 1 μM)?
**A.** 0

**Q.** What about the inhibition at 1 µM (elastase) of the same compound?
**A.** 0%

**Q.** What about the inhibition at 1 µM (cathepsin B) of the same compound?
**A.** 0%

**Q.** Which inhibition at 0.1 µM (prolyl endopeptidase) does the source give for `O=C(COc1ccc(F)cc1)[C@@H]1CCCN1C(=O)[C@@H]1CCCN1C(=O)NCc1ccc(F)cc1` [Compound 29, (2S)-1-[N-(4-Fluorobenzylaminocarbonyl)-L-prolyl]-2-(4-fluorophenoxyacetyl)pyrrolidine] here?
**A.** 99%

**Q.** And the pIC50 (prolyl endopeptidase)?
**A.** 10.00

**Q.** What about the inhibition at 0.1 µM (trypsin) of the same compound?
**A.** 0%

**Q.** What about the inhibition at 0.1 µM (chymotrypsin) of the same compound?
**A.** 0%

**Q.** And the “inhibition rate, leucine aminopeptidase” value (leucine aminopeptidase; 0.1 μM)?
**A.** 0

**Q.** What about the inhibition at 0.1 µM (elastase) of the same compound?
**A.** 0%

**Q.** What about the inhibition at 0.1 µM (cathepsin B) of the same compound?
**A.** 0%

**Q.** For `COc1ccc(OCC(=O)[C@@H]2CCCN2C(=O)[C@@H]2CCCN2C(=O)OCc2ccccc2)cc1` [Compound 18, (2S)-1-(N-Benzyloxycarbonyl-L-prolyl)-2-[(4-methoxyphenoxy)-acetyl]pyrrolidine], which inhibition at 0.1 µM (prolyl endopeptidase) is on record?
**A.** 93%

**Q.** What about the pIC50 (prolyl endopeptidase) of the same compound?
**A.** 8.82

**Q.** What about the inhibition at 0.1 µM (trypsin) of the same compound?
**A.** 0%

**Q.** And the inhibition at 0.1 µM (chymotrypsin)?
**A.** 0%

**Q.** What about the “inhibition rate, leucine aminopeptidase” value (leucine aminopeptidase; 0.1 μM) of the same compound?
**A.** 0

**Q.** And the inhibition at 0.1 µM (elastase)?
**A.** 0%

**Q.** And the inhibition at 0.1 µM (cathepsin B)?
**A.** 0%

— US5506256A, “Proline derivatives possessing prolyl endopeptidase-inhibitory activity” (Yoshitomi Pharmaceutical Industries, Ltd., priority 1990, dated 1996)
